From the supplement of paper PMC10307832

Assays:
Test in all cases: relative viability (nuclei count vs DMSO), 5 days (fraction); higher = more cells survive
Masitinib + Olaparib = compound: Cc1ccc(NC(=O)c2ccc(CN3CCN(C)CC3)cc2)cc1Nc1nc(-c2cccnc2)cs1 [Masitinib] + O=C(c1cc(Cc2n[nH]c(=O)c3ccccc23)ccc1F)N1CCN(C(=O)C2CC2)CC1 [Olaparib] (partner 8 µM)
In short: (§1)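 Cells from lung cancer lines were seeded into 1536-well plates and, one day later, dosed by pin tool. Treatments were either a single drug or a fixed dose of an anchor drug with five library-drug doses (not always all listed) in √10 steps. After 5 days, nuclei were stained in a one-step fixation (final 0.05% Triton X-100, 1% formaldehyde, 1 ug/ml Hoechst) and counted on 4× images, and relative viability is the treated-to-vehicle nuclei ratio, as the median of duplicate plates.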

Masitinib + Lapatinib = compound: Cc1ccc(NC(=O)c2ccc(CN3CCN(C)CC3)cc2)cc1Nc1nc(-c2cccnc2)cs1 [Masitinib] + CS(=O)(=O)CCNCc1ccc(-c2ccc3ncnc(Nc4ccc(OCc5cccc(F)c5)c(Cl)c4)c3c2)o1 [Lapatinib] (partner 2 µM)
In short: as §1

[1] = compound: CC1=CC(=CC=C1)NC2=NC(=CS2)C3=CC=NC=C3 + CC(=O)Nc1cccc(-n2c(=O)n(C3CC3)c(=O)c3c(Nc4ccc(I)cc4F)n(C)c(=O)c(C)c32)c1 [Trametinib] (partner 0.02 µM)
In short: as §1

[2] = compound: CC1=CC(=CC=C1)NC2=NC(=CS2)C3=CC=NC=C3 + CS(=O)(=O)N1CCN(Cc2cc3nc(-c4cccc5[nH]ncc45)nc(N4CCOCC4)c3s2)CC1 [Pictilisib] (partner 1 µM)
In short: as §1

UMC-11
relative viability (Masitinib + Olaparib; first compound 0.01 µM): 0.354
relative viability (Masitinib + Olaparib; first compound 0.03162 µM): 0.371
relative viability (Masitinib + Olaparib; first compound 0.1 µM): 0.372
relative viability (Masitinib + Olaparib; first compound 0.3162 µM): 0.376
relative viability (Masitinib + Olaparib; first compound 1 µM): 0.398
relative viability (Masitinib + Lapatinib; first compound 0.01 µM): 0.82
relative viability (Masitinib + Lapatinib; first compound 0.03162 µM): 0.914
relative viability (Masitinib + Lapatinib; first compound 0.1 µM): 0.979
relative viability (Masitinib + Lapatinib; first compound 0.3162 µM): 1.06
relative viability (Masitinib + Lapatinib; first compound 1 µM): 1.05
relative viability ([1]; first compound 0.08 µM): 0.555
relative viability ([1]; first compound 0.253 µM): 0.737
relative viability ([1]; first compound 0.8 µM): 0.731
relative viability ([1]; first compound 2.53 µM): 0.768
relative viability ([1]; first compound 8 µM): 0.764
relative viability ([2]; first compound 0.08 µM): 0.757
relative viability ([2]; first compound 0.253 µM): 0.746
relative viability ([2]; first compound 0.8 µM): 0.729
relative viability ([2]; first compound 2.53 µM): 0.761
relative viability ([2]; first compound 8 µM): 0.824
